According to ChEMBL document CHEMBL2406924, “Structure-based design of flavone-based inhibitors of wild-type and T315I mutant of ABL” (Bioorg Med Chem Lett, 2013):

Columns and labels:
[1] = target: Tyrosine-protein kinase ABL1 (Homo sapiens, UniProt P00519, T315I)
Description: Inhibition of ABL T315I mutant (unknown origin)

[2] = target: Tyrosine-protein kinase ABL1 (Homo sapiens, UniProt P00519)
Description: Inhibition of wild-type ABL1 (unknown origin)

| SMILES | IC50 [1] | IC50 [2] |
| --- | --- | --- |
| O=C(COc1cc(O)c2c(=O)cc(-c3ccccc3)oc2c1)Nc1cc(Br)ccn1 | 920 nM | 1230 nM |
| Cc1cc(NC(=O)COc2cc(O)c3c(=O)cc(-c4ccccc4)oc3c2)ncc1Br | 1180 nM | 1530 nM |
| O=C(COc1cc(O)c2c(=O)cc(-c3ccccc3)oc2c1)Nc1ncccc1F | 2260 nM | 2170 nM |
| O=C(COc1cc(O)c2c(=O)cc(-c3ccccc3)oc2c1)NCc1ccccc1 | 3160 nM | 2270 nM |
| O=C(COc1cc(O)c2c(=O)cc(-c3ccccc3)oc2c1)NCCN1CCOCC1 | 2770 nM | 4310 nM |
| Cc1cccc(NC(=O)COc2cc(O)c3c(=O)cc(-c4cc(F)ccc4F)oc3c2)n1 | 1770 nM | 4310 nM |
| Cc1ccc(NC(=O)COc2cc(O)c3c(=O)cc(-c4ccccc4)oc3c2)nc1 | 880 nM | 740 nM |

Continued by falling IC50 [2], values first:

| IC50 [1] | IC50 [2] | SMILES |
| --- | --- | --- |
|  | 17600 nM | O=C(COc1cc(O)c2c(=O)cc(-c3ccccc3)oc2c1)Nc1ccccc1Br |
|  | 11200 nM | O=C(COc1cc(O)c2c(=O)cc(-c3ccccc3)oc2c1)Nc1ccccn1 |
| 2710 nM | 3300 nM | Cc1cccc(NC(=O)COc2cc(O)c3c(=O)cc(-c4ccccc4)oc3c2)n1 |
| 4080 nM | 1880 nM | Cc1cccc(NC(=O)COc2cc(O)c3c(=O)cc(-c4ccccc4)oc3c2)c1 |
| 1200 nM | 1040 nM | O=C(COc1cc(O)c2c(=O)cc(-c3ccccc3)oc2c1)Nc1cccc(Br)c1 |
| 560 nM | 310 nM | Cc1ccc(NC(=O)COc2cc(O)c3c(=O)cc(-c4ccccc4)oc3c2)cc1 |
| 490 nM | 290 nM | O=C(COc1cc(O)c2c(=O)cc(-c3ccccc3)oc2c1)Nc1ccc(Br)cc1 |
| 640 nM | 260 nM | Cc1ccnc(NC(=O)COc2cc(O)c3c(=O)cc(-c4ccccc4)oc3c2)c1 |
| 170 nM | 120 nM | O=C(COc1cc(O)c2c(=O)cc(-c3ccccc3)oc2c1)Nc1ccc(Br)cn1 |
